Test results from patent US9085576B2 (AMGEN INC., priority 2013, dated 2015).

Tests used:
Cathepsin D (Cat D) = Cathepsin D (Cat D) (Homo sapiens (Human), UniProt P07339); assay: In vitro enzymatic Cathepsin D (Cat D) FRET assay; type: biochemical; conditions: read-out: CatD IC50
Abeta 40 = assay: In vivo inhibition of beta-secretase: Abeta 40 reduction in CSF and brain of the rat; conditions: 10 mpk, after 4 hrs; for % reduction of rat CSF levels at 10 pmk: Abeta 40 in rat CSF; for % reduction of rat brain levels at 10 mpk: Abeta 40 in rat brain
[1] = target: Beta Secretase enzyme (BACE) (Homo sapiens (Human), UniProt P56817); assay: In vitro enzymatic BACE FRET assay; type: biochemical; conditions: read-out: BACE1 Enzyme assay IC50
Sequence of Beta Secretase enzyme (BACE) (P56817 46-501): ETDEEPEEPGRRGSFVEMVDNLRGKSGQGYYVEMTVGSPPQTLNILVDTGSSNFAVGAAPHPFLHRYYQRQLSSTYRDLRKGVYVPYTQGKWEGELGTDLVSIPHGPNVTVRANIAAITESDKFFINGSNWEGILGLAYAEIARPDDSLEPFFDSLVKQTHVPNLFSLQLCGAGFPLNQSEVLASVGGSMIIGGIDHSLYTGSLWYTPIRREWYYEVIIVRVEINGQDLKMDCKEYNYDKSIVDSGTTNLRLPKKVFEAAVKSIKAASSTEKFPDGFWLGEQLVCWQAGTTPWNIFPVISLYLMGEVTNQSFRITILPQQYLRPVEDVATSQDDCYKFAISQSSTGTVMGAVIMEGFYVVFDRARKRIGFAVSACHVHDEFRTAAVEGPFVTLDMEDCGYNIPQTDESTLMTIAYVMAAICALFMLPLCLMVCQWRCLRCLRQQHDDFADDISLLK

BACE = BACE (Homo sapiens (Human), UniProt P56817); assay: In vitro BACE cell-based assay (Aβ40 in conditioned medium, sandwich ELISA)
Sequence of BACE (P56817 46-501, species assumed): as the sequence (P56817 46-501) above

Sequence of Cathepsin D (Cat D) (P07339 65-412, species assumed): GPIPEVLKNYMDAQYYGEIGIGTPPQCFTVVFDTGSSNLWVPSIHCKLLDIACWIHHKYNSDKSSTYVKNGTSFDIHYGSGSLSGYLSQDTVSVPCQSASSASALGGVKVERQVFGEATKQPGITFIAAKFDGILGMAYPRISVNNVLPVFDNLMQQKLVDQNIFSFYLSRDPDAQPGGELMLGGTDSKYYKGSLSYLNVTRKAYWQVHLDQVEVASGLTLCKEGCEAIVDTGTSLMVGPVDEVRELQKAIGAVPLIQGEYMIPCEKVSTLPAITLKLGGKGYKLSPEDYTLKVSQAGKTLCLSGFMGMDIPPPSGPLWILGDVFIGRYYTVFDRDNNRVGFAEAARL

| SMILES | IC50 (Cathepsin D (Cat D)) | IC50 [1] | IC50 (BACE) | % reduction of rat CSF levels at 10 pmk (Abeta 40) | % reduction of rat brain levels at 10 mpk (Abeta 40) |
| --- | --- | --- | --- | --- | --- |
| Cc1cc(NC(=O)c2ccc(C#N)cn2)cc([C@@]2(C(F)F)N=C(N)O[C@@H]3C[C@@H]32)c1F [Example 390, N-(3-((1R,5S,6R)-3-amino-5-(difluoromethyl)-2-oxa-4-azabicyclo[4.1.0]hept-3-en-5-yl)-4-fluoro-5-methylphenyl)-5-cyanopicolinamide] |  |  |  | 71% | 54% |
| Cc1cc(Cl)cnc1C(=O)Nc1ccc(Cl)c([C@@]2(CF)N=C(N)O[C@@H]3C[C@@H]32)c1 [Example 443, N-(3-((1R,5S,6R)-3-amino-5-(fluoromethyl)-2-oxa-4-azabicyclo[4.1.0]hept-3-en-5-yl)-4-chlorophenyl)-5-chloro-3-methylpicolinamide] | 517 µM | 0.0373 µM | 0.0136 µM |  |  |
| COc1cnc2c(Nc3ccc(F)c([C@@]4(C(F)F)N=C(N)O[C@@H]5C[C@@H]54)c3)nccc2n1 [Example 447, (1R,5S,6R)-5-(difluoromethyl)-5-(2-fluoro-5-((2-methoxypyrido[3,4-b]pyrazin-5-yl)amino)phenyl)-2-oxa-4-azabicyclo[4.1.0]hept-3-en-3-amine] | 501 µM | 0.139 µM | 0.167 µM |  |  |
| COc1cnc2c(Nc3ccc(F)c([C@@]4(C(F)F)N=C(N)O[C@@H]5C[C@@H]54)c3)ncc(F)c2c1 [Example 448, (1R,5S,6R)-5-(difluoromethyl)-5-(2-fluoro-5-((5-fluoro-3-methoxy-1,7-naphthyridin-8-yl)amino)phenyl)-2-oxa-4-azabicyclo[4.1.0]hept-3-en-3-amine] | 169 µM | 0.117 µM | 0.0863 µM |  |  |
| NC1=N[C@@](c2cc(Nc3ncnc4cc(C(F)(F)F)cnc34)ccc2F)(C(F)F)[C@H]2C[C@H]2O1 [Example 449, (1R,5S,6R)-5-(difluoromethyl)-5-(2-fluoro-5-((7-(trifluoromethyl)pyrido[3,2-d]pyrimidin-4-yl)amino)phenyl)-2-oxa-4-azabicyclo[4.1.0]hept-3-en-3-amine] | 79.4 µM | 0.124 µM | 0.268 µM |  |  |
| N#Cc1cnc(C(=O)Nc2ccc(Cl)c([C@@]3(CF)N=C(N)O[C@@H]4C[C@@H]43)c2)c(F)c1 [Example 450, N-(3-((1R,5S,6R)-3-amino-5-(fluoromethyl)-2-oxa-4-azabicyclo[4.1.0]hept-3-en-5-yl)-4-chlorophenyl)-5-cyano-3-fluoropicolinamide] | > 400 µM | 0.0503 µM | 0.00817 µM |  |  |

Further lines, with some results ahead:

| IC50 (Cathepsin D (Cat D)) | IC50 [1] | IC50 (BACE) | SMILES | % reduction of rat CSF levels at 10 pmk (Abeta 40) | % reduction of rat brain levels at 10 mpk (Abeta 40) |
| --- | --- | --- | --- | --- | --- |
| 825 µM |  |  | N#Cc1cnc(C(=O)Nc2ccc(F)c([C@@]3(C(F)F)N=C(N)O[C@@H]4C[C@@H]43)c2)c(Cl)c1 [Example 66, N-(3-((1R,5S,6R)-3-amino-5-(difluoromethyl)-2-oxa-4-azabicyclo[4.1.0]hept-3-en-5-yl)-4-fluorophenyl)-3-chloro-5-cyanopicolinamide] | 59% | 42% |
| 1270 µM | 0.29 µM | 0.031 µM | NC1=N[C@](CF)(c2cc(NC(=O)c3ccc(F)cn3)ccc2Cl)[C@H]2C[C@H]2O1 [Example 445, N-(3-((1R,5S,6R)-3-amino-5-(fluoromethyl)-2-oxa-4-azabicyclo[4.1.0]hept-3-en-5-yl)-4-chlorophenyl)-5-fluoropicolinamide] |  |  |
| 658 µM | 0.0558 µM | 0.107 µM | N#Cc1cnc2c(Nc3ccc(F)c([C@@]4(C(F)F)N=C(N)O[C@@H]5C[C@@H]54)c3)nccc2c1 [Example 446, 8-((3-((1R,5S,6R)-3-amino-5-(difluoromethyl)-2-oxa-4-azabicyclo[4.1.0]hept-3-en-5-yl)-4-fluorophenyl)amino)-1,7-naphthyridine-3-carbonitrile] |  |  |
| 960 µM | 5.38 µM | 6.28 µM | NC1=N[C@@](c2cc(NC(=O)c3c(F)cc(F)cc3F)ccc2F)(C(F)F)[C@H]2C[C@H]2O1 [Example 451, N-(3-((1R,5S,6R)-3-amino-5-(difluoromethyl)-2-oxa-4-azabicyclo[4.1.0]hept-3-en-5-yl)-4-fluorophenyl)-2,4,6-trifluorobenzamide] |  |  |
